Measured values taken from ChEMBL document CHEMBL1147112 (2007).
≈ marks a conversion by molar mass, not a printed value. Calls of active or inactive are those of the source. No cut-off for these calls is given here.

How the values were obtained:
[1] = system: Staphylococcus aureus; assay: Antimicrobial activity against methicillin-susceptible Staphylococcus aureus ATCC 29213 in human monocyte-derived macrophages at 2.5 ug/ml assessed as bacterial viability after 4 hrs; format: functional
[2] = system: Staphylococcus aureus; assay: Antimicrobial activity against methicillin-susceptible Staphylococcus aureus ATCC 29213 in human monocyte-derived macrophages at 0.5 ug/ml assessed as bacterial viability after 24 hrs; format: functional
[3] = system: Staphylococcus aureus; assay: Antimicrobial activity against methicillin-resistant Staphylococcus aureus ATCC 43300 in human monocyte-derived macrophages at 2.5 ug/ml assessed as bacterial viability after 24 hrs; format: functional
[4] = system: Staphylococcus aureus; assay: Antimicrobial activity against methicillin-resistant Staphylococcus aureus ATCC 43300 in human monocyte-derived macrophages at 0.25 ug/ml assessed as bacterial viability after 24 hrs; format: functional
[5] = system: Staphylococcus aureus; assay: Antimicrobial activity against methicillin-resistant Staphylococcus aureus ATCC 43300 in human monocyte-derived macrophages at 0.5 ug/ml assessed as bacterial viability after 4 hrs; format: functional
[6] = system: Staphylococcus aureus; assay: Antimicrobial activity against methicillin-resistant Staphylococcus aureus ATCC 43300 in human monocyte-derived macrophages at 2.5 ug/ml assessed as bacterial viability after 4 hrs; format: functional
[7] = system: Staphylococcus aureus; assay: Antimicrobial activity against methicillin-susceptible Staphylococcus aureus ATCC 29213 in human monocyte-derived macrophages at 0.5 ug/ml assessed as bacterial viability after 2 hrs; format: functional
[8] = system: Staphylococcus aureus; assay: Antimicrobial activity against methicillin-susceptible Staphylococcus aureus ATCC 29213; format: functional
[9] = system: Staphylococcus aureus; assay: Antimicrobial activity against methicillin-susceptible Staphylococcus aureus ATCC 29213 in human monocyte-derived macrophages at 0.25 ug/ml assessed as bacterial viability after 4 hrs; format: functional
[10] = system: Staphylococcus aureus; assay: Antimicrobial activity against methicillin-susceptible Staphylococcus aureus ATCC 29213 in human monocyte-derived macrophages at 0.25 ug/ml assessed as bacterial viability after 2 hrs; format: functional
[11] = system: Staphylococcus aureus; assay: Antimicrobial activity against methicillin-resistant Staphylococcus aureus ATCC 43300 in human monocyte-derived macrophages at 2.5 ug/ml assessed as bacterial viability after 2 hrs; format: functional
[12] = system: Staphylococcus aureus; assay: Antimicrobial activity against methicillin-resistant Staphylococcus aureus ATCC 43300 in human monocyte-derived macrophages at 0.5 ug/ml assessed as bacterial viability after 24 hrs; format: functional
[13] = system: Staphylococcus aureus; assay: Antimicrobial activity against methicillin-resistant Staphylococcus aureus ATCC 43300; format: functional
[14] = system: Staphylococcus aureus; assay: Antimicrobial activity against methicillin-resistant Staphylococcus aureus ATCC 43300 in human monocyte-derived macrophages at 0.25 ug/ml assessed as bacterial viability after 2 hrs; format: functional
[15] = system: Staphylococcus aureus; assay: Antimicrobial activity against methicillin-resistant Staphylococcus aureus ATCC 43300 in human monocyte-derived macrophages at 0.25 ug/ml assessed as bacterial viability after 4 hrs; format: functional
[16] = system: Staphylococcus aureus; assay: Antimicrobial activity against methicillin-resistant Staphylococcus aureus ATCC 43300 in human monocyte-derived macrophages at 5 ug/ml assessed as bacterial viability after 24 hrs; format: functional
[17] = system: Staphylococcus aureus; assay: Antimicrobial activity against methicillin-susceptible Staphylococcus aureus ATCC 29213 in human monocyte-derived macrophages at 2.5 ug/ml assessed as bacterial viability after 2 hrs; format: functional
[18] = system: Staphylococcus aureus; assay: Antimicrobial activity against methicillin-resistant Staphylococcus aureus 8111; format: functional
[19] = system: Staphylococcus aureus; assay: Antimicrobial activity against methicillin-susceptible Staphylococcus aureus ATCC 29213 in human monocyte-derived macrophages at 5 ug/ml assessed as bacterial viability after 2 hrs; format: functional
[20] = system: Staphylococcus aureus; assay: Antimicrobial activity against methicillin-susceptible Staphylococcus aureus ATCC 29213 in human monocyte-derived macrophages at 5 ug/ml assessed as bacterial viability after 4 hrs; format: functional
[21] = system: Staphylococcus aureus; assay: Antimicrobial activity against methicillin-susceptible Staphylococcus aureus ATCC 29213 in human monocyte-derived macrophages at 0.25 ug/ml assessed as bacterial viability after 24 hrs; format: functional
[22] = system: Staphylococcus aureus; assay: Antimicrobial activity against methicillin-susceptible Staphylococcus aureus ATCC 29213 in human monocyte-derived macrophages at 5 ug/ml assessed as bacterial viability after 24 hrs; format: functional
[23] = system: Staphylococcus aureus; assay: Antimicrobial activity against methicillin-resistant Staphylococcus aureus ATCC 43300 in human monocyte-derived macrophages at 5 ug/ml assessed as bacterial viability after 2 hrs; format: functional
[24] = system: Staphylococcus aureus; assay: Antimicrobial activity against methicillin-resistant Staphylococcus aureus ATCC 43300 in human monocyte-derived macrophages at 5 ug/ml assessed as bacterial viability after 4 hrs; format: functional
[25] = system: Staphylococcus aureus; assay: Antimicrobial activity against methicillin-susceptible Staphylococcus aureus ATCC 29213 in human monocyte-derived macrophages at 2.5 ug/ml assessed as bacterial viability after 24 hrs; format: functional
[26] = system: Staphylococcus aureus; assay: Extracellular killing of Staphylococcus aureus 8111 in MH-2 broth at 0.5 ug/ml assessed as suppression of number of viable bacteria after 24 hrs; format: functional, organism-based
[27] = system: Staphylococcus aureus; assay: Antimicrobial activity against methicillin-susceptible Staphylococcus aureus ATCC 29213 in human monocyte-derived macrophages at 0.5 ug/ml assessed as bacterial viability after 4 hrs; format: functional
[28] = system: Staphylococcus aureus; assay: Antimicrobial activity against methicillin-resistant Staphylococcus aureus ATCC 43300 in human monocyte-derived macrophages at 0.5 ug/ml assessed as bacterial viability after 2 hrs; format: functional

`CCCCCCCCCC(=O)N[C@@H](Cc1c[nH]c2ccccc12)C(=O)N[C@H](CC(N)=O)C(=O)N[C@@H](CC(=O)O)C(=O)N[C@@H]1C(=O)NCC(=O)N[C@@H](CCCN)C(=O)N[C@@H](CC(=O)O)C(=O)N[C@H](C)C(=O)N[C@@H](CC(=O)O)C(=O)NCC(=O)N[C@H](CO)C(=O)N[C@@H]([C@H](C)CC(=O)O)C(=O)N[C@@H](CC(=O)c2ccccc2N)C(=O)O[C@@H]1C` showed a log10CFU/ml [1] of -1.75, a log10CFU/ml [2] of 2 and a log10CFU/ml [3] of -0.83. It also gave a log10CFU/ml [4] of 2.1, a log10CFU/ml [5] of 0 and a log10CFU/ml [6] of -1.48. The log10CFU/ml [7] was -0.59, the MIC [8] was 0.5 mg/L (≈ 0.309 µM) and the log10CFU/ml [9] was 1.84. The log10CFU/ml [10] was 0.57, the log10CFU/ml [11] was -1.35 and the log10CFU/ml [12] was 1.93. For the same molecule, the MIC [13] was 0.5 mg/L (≈ 0.309 µM), the log10CFU/ml [14] was 0.14 and the log10CFU/ml [15] was 1.27. It also gave a log10CFU/ml [16] of -1.06, a log10CFU/ml [17] of -1.7 and an MIC [18] of 0.5 mg/L (≈ 0.309 µM). The log10CFU/ml [19] was -2, the log10CFU/ml [20] was -2.05 and the log10CFU/ml [21] was 2.02. It also gave a log10CFU/ml [22] of -0.52, a log10CFU/ml [23] of -1.52 and a log10CFU/ml [24] of -1.8. The log10CFU/ml [25] was -0.32, the Activity [26] was “Active” and the log10CFU/ml [27] was 0.76.
In the case of `CN[C@H](CC(C)C)C(=O)N[C@H]1C(=O)N[C@@H](CC(N)=O)C(=O)N[C@H]2C(=O)N[C@H]3C(=O)N[C@H](C(=O)N[C@H](C(=O)O)c4cc(O)cc(O)c4-c4cc3ccc4O)[C@H](O)c3ccc(c(Cl)c3)Oc3cc2cc(c3O[C@@H]2O[C@H](CO)[C@@H](O)[C@H](O)[C@H]2O[C@H]2C[C@](C)(N)[C@H](O)[C@H](C)O2)Oc2ccc(cc2Cl)[C@H]1O` [VANCOMYCIN], the log10CFU/ml [1] is reported as -1.07, the log10CFU/ml [2] is reported as 2.17 and the log10CFU/ml [3] is reported as -1.6. The log10CFU/ml [4] was 2.47, the log10CFU/ml [5] was 0.03 and the log10CFU/ml [6] was -0.88. The log10CFU/ml [7] was 0.51, the log10CFU/ml [9] was 2.14 and the log10CFU/ml [10] was 0.98. It also gave a log10CFU/ml [11] of -0.38, a log10CFU/ml [12] of 2.23 and a log10CFU/ml [28] of -0.39. The log10CFU/ml [14] was 0.6, the log10CFU/ml [15] was 1.58 and the log10CFU/ml [16] was -1.62. For the same molecule, the log10CFU/ml [17] was -0.86, the log10CFU/ml [19] was -0.85 and the log10CFU/ml [20] was -1.14. For the same molecule, the log10CFU/ml [21] was 2.17, the log10CFU/ml [22] was -0.85 and the log10CFU/ml [23] was -0.51. It also gave a log10CFU/ml [24] of -0.84, a log10CFU/ml [25] of -0.46 and a log10CFU/ml [27] of 1.85.
With GENTAMICIN the MIC [8] was 1 mg/L, the MIC [13] was 128 mg/L and the MIC [18] was 2 mg/L.
`Cc1onc(-c2ccccc2)c1C(=O)N[C@@H]1C(=O)N2[C@@H]1SC(C)(C)[C@@H]2C(=O)O` [OXACILLIN] was tested, and the log10CFU/ml [1] was -2.05, the log10CFU/ml [2] was -1.54 and the log10CFU/ml [3] was -2.7. For the same molecule, the log10CFU/ml [4] was -1.02, the log10CFU/ml [5] was -1.35 and the log10CFU/ml [6] was -1.32. For the same molecule, the log10CFU/ml [7] was -0.48, the MIC [8] was 0.5 mg/L (≈ 1.25 µM) and the log10CFU/ml [9] was -0.05. It also gave a log10CFU/ml [10] of 0.21, a log10CFU/ml [11] of -0.94 and a log10CFU/ml [12] of -2.52. The log10CFU/ml [28] was -0.85, the MIC [13] was 16 mg/L (≈ 39.9 µM) and the log10CFU/ml [14] was -0.85. The log10CFU/ml [16] was -3, the MIC [18] was 64 mg/L (≈ 159 µM) and the log10CFU/ml [19] was -0.91. The log10CFU/ml [20] was -1.72, the log10CFU/ml [21] was -1.47 and the log10CFU/ml [22] was -2.7. It also gave a log10CFU/ml [23] of -1.27, a log10CFU/ml [24] of -1.75 and a log10CFU/ml [25] of -2.7. For the same molecule, the log10CFU/ml [27] was -1.51.
Work on `CO[C@H]1/C=C/O[C@@]2(C)Oc3c(C)c(O)c4c(O)c(c(/C=N/N5CCN(C)CC5)c(O)c4c3C2=O)NC(=O)/C(C)=C\C=C\[C@H](C)[C@H](O)[C@@H](C)[C@@H](O)[C@@H](C)[C@H](OC(C)=O)[C@@H]1C` [RIFAMPIN] yielded an MIC [8] of 0.015 mg/L (≈ 0.0182 µM), an MIC [13] of 0.015 mg/L (≈ 0.0182 µM) and an MIC [18] of 0.015 mg/L (≈ 0.0182 µM).
